Reference: ChEMBL document CHEMBL3997816, “Discovery and characterization of [(cyclopentyl)ethyl]benzoic acid inhibitors of microsomal prostaglandin E synthase-1” (Bioorg Med Chem Lett, 2017)

Assays:
[1] = target: T1, Prostaglandin E synthase (Homo sapiens, UniProt O14684); assay: Inhibition of human mPGES1 expressed in HEK293 microsomes assessed as reduction in PGE2 production using PGH2 as substrate after 2.5 mins by LC-MS analysis
T1 sequence (O14684 whole entry): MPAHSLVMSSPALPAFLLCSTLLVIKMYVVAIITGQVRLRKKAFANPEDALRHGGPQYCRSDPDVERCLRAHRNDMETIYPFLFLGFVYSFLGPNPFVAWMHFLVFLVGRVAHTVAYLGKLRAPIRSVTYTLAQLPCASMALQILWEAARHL

[2] = Clearance in rat at 1 mg/kg, iv; format: ADME, organism-based; settings: in vivo
[3] = target: T1, Prostaglandin E synthase; assay: (§1) Inhibition of mPGES1 in human whole blood assessed as reduction in LPS-induced PGE2 production preincubated for 30 mins followed by LPS addition measured after 20 to 24 hrs by LC-MS analysis
[4] = target: T2, Prostaglandin E synthase (Homo sapiens) (UniProt O14684); assay: as §1
T2 sequence (whole entry): T1 sequence (O14684 whole entry)

[5] = target: CYP2C9 (Homo sapiens, UniProt P11712); assay: Inhibition of CYP2C9 (unknown origin) in microsomes at 10 uM relative to control; format: ADME
[6] = target: T1, Prostaglandin E synthase; assay: Inhibition of mPGES1 in human A549 cells assessed as reduction in IL-1beta-induced PGE2 production preincubated for 30 mins followed by IL-1beta addition measured after 18 hrs by enzyme immunoassay; format: cell-based
[7] = target: T3, Prostaglandin G/H synthase 2 (Homo sapiens, UniProt P35354); assay: Inhibition of COX2 in human A549 cells assessed as reduction in IL-1beta-induced PGI2 production preincubated for 30 mins followed by IL-1beta addition measured after 18 hrs by enzyme immunoassay; format: cell-based; settings: a549, 18 h
T3 sequence (P35354 whole entry): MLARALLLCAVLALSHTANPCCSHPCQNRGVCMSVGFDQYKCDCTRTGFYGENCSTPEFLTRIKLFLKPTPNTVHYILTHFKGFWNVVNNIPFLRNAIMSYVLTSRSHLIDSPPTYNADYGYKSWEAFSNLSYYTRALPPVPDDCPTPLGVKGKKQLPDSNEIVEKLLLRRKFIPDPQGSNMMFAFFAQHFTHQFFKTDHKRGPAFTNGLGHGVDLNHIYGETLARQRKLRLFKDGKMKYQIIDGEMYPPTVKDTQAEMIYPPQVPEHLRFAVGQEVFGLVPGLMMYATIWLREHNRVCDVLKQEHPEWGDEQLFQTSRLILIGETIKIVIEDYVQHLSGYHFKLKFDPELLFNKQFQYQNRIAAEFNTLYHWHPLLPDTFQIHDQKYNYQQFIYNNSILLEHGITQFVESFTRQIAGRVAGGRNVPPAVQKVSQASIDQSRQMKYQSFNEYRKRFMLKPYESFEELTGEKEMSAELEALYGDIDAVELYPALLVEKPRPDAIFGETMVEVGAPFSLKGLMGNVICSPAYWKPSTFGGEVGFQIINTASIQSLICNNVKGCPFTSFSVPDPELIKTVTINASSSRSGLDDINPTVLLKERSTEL

[8] = target: T4, Prostaglandin G/H synthase 1 (Homo sapiens, UniProt P23219); assay: Inhibition of COX1 in human whole blood assessed as effect on LPS-induced PGF2alpha level preincubated for 30 mins followed by LPS addition measured after 20 to 24 hrs by LC-MS analysis
[9] = target: T4, Prostaglandin G/H synthase 1; assay: Inhibition of COX1 in human whole blood assessed as effect on LPS-induced TXB2 level preincubated for 30 mins followed by LPS addition measured after 20 to 24 hrs by LC-MS analysis
[10] = system: Rattus norvegicus; assay: Time at which plasma concentration stays above human whole blood IC80 level in rat at 5 mg/kg, po administered as single dose
[11] = Selectivity index, ratio of compound effect for inhibition of human mPGES1 expressed in HEK293 microsomes to compound effect for inhibition of ovine COX1
[12] = Oral bioavailability in rat at 5 mg/kg; format: ADME, organism-based; settings: in vivo
[13] = target: T5, Prostaglandin G/H synthase 1 (Ovis aries, UniProt P05979); assay: Inhibition of ovine COX1 assessed as reduction in PGF2alpha production at 10 uM using arachidonic acid as substrate by colorimetric method; settings: sheep
T5 sequence (P05979 whole entry): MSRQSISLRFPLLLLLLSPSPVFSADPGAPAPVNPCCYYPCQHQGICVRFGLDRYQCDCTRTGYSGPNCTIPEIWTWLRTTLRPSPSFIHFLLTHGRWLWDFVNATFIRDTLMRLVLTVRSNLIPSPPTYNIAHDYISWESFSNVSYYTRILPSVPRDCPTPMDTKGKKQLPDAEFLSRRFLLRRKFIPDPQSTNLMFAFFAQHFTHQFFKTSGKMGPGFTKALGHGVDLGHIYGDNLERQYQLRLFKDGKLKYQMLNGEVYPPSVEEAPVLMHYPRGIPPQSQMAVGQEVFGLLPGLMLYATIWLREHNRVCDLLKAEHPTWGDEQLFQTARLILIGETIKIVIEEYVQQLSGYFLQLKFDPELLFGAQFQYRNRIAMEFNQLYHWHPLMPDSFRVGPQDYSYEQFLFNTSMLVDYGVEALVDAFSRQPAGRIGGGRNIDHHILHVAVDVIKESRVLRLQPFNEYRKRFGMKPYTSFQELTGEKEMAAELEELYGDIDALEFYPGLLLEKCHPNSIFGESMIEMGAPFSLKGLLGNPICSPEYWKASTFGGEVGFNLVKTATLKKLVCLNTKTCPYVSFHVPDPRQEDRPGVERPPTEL

[14] = target: T4, Prostaglandin G/H synthase 1; assay: Inhibition of COX1 in human whole blood assessed as effect on LPS-induced PGF2alpha level up to 10 uM preincubated for 30 mins followed by LPS addition measured after 20 to 24 hrs by LC-MS analysis
[15] = target: T4, Prostaglandin G/H synthase 1; assay: Inhibition of COX1 in human whole blood assessed as effect on LPS-induced TXB2 level up to 10 uM preincubated for 30 mins followed by LPS addition measured after 20 to 24 hrs by LC-MS analysis
[16] = Oral bioavailability in dog at 3 mg/kg; settings: in vivo
[17] = Cmax in dog at 5 mg/kg, po; format: ADME, organism-based, Canis lupus familiaris; design: dose 5 mg/kg, route oral; settings: in vivo
[18] = target: Voltage-gated inwardly rectifying potassium channel KCNH2 (Homo sapiens, UniProt Q12809); assay: Inhibition of human ERG expressed in CHO cells at 10 uM by automated patch clamp method; format: cell-based
[19] = Cmax in rat at 5 mg/kg, po; format: ADME, organism-based; design: dose 5 mg/kg, route oral; settings: in vivo
[20] = Clearance in dog at 1 mg/kg, iv; format: ADME, organism-based, Canis lupus familiaris; settings: in vivo
[21] = system: Canis familiaris; assay: Time at which plasma concentration stays above human whole blood IC80 level in dog at 3 mg/kg, po administered as single dose; design: species or system Canis lupus familiaris
[22] = Volume of distribution at steady state in rat at 1 mg/kg, iv; format: ADME, organism-based; settings: in vivo, read-out: Vdss
[23] = Volume of distribution at steady state in dog at 1 mg/kg, iv; format: ADME, organism-based, Canis lupus familiaris; settings: in vivo, read-out: Vdss
[24] = target: T3, Prostaglandin G/H synthase 2; assay: Inhibition of COX2 in human A549 cells assessed as reduction in IL-1beta-induced PGI2 production up to 10 uM preincubated for 30 mins followed by IL-1beta addition measured after 18 hrs by enzyme immunoassay; format: cell-based; settings: a549, 18 h
[25] = target: T3, Prostaglandin G/H synthase 2; assay: Inhibition of human COX2 assessed as reduction in PGF2alpha production at 10 uM using arachidonic acid as substrate by colorimetric method
[26] = species: Homo sapiens; assay: Selectivity index, ratio of compound effect for inhibition of human mPGES1 expressed in HEK293 microsomes to compound effect for inhibition of human COX2

T4 sequence (P23219 whole entry): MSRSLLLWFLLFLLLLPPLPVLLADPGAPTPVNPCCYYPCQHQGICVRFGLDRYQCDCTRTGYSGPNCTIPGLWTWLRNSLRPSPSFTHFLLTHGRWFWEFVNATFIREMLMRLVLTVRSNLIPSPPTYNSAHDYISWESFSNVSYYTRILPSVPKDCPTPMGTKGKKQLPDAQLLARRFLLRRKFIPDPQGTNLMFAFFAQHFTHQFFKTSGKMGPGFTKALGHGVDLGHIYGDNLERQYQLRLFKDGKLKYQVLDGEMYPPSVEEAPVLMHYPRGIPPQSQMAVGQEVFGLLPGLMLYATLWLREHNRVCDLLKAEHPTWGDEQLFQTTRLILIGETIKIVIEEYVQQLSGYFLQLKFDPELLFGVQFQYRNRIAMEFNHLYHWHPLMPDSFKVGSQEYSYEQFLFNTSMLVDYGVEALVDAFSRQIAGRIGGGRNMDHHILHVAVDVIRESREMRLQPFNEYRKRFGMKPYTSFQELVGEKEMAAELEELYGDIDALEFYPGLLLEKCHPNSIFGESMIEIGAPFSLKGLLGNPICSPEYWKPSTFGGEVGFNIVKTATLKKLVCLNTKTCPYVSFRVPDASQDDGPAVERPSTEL
Sequence of CYP2C9 (P11712 whole entry): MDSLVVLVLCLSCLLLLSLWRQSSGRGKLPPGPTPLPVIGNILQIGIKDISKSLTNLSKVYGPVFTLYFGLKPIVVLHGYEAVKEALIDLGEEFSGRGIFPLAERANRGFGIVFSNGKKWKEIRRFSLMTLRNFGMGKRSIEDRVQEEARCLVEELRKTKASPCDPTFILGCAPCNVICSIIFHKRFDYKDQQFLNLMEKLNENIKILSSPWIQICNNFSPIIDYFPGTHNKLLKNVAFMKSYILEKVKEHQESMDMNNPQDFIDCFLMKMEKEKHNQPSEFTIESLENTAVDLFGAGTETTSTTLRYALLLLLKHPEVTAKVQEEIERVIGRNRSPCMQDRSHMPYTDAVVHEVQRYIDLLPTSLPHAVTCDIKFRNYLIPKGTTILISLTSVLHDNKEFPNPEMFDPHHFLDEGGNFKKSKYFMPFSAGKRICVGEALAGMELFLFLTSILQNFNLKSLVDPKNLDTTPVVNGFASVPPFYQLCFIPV
Sequence of Voltage-gated inwardly rectifying potassium channel KCNH2 (Q12809 whole entry): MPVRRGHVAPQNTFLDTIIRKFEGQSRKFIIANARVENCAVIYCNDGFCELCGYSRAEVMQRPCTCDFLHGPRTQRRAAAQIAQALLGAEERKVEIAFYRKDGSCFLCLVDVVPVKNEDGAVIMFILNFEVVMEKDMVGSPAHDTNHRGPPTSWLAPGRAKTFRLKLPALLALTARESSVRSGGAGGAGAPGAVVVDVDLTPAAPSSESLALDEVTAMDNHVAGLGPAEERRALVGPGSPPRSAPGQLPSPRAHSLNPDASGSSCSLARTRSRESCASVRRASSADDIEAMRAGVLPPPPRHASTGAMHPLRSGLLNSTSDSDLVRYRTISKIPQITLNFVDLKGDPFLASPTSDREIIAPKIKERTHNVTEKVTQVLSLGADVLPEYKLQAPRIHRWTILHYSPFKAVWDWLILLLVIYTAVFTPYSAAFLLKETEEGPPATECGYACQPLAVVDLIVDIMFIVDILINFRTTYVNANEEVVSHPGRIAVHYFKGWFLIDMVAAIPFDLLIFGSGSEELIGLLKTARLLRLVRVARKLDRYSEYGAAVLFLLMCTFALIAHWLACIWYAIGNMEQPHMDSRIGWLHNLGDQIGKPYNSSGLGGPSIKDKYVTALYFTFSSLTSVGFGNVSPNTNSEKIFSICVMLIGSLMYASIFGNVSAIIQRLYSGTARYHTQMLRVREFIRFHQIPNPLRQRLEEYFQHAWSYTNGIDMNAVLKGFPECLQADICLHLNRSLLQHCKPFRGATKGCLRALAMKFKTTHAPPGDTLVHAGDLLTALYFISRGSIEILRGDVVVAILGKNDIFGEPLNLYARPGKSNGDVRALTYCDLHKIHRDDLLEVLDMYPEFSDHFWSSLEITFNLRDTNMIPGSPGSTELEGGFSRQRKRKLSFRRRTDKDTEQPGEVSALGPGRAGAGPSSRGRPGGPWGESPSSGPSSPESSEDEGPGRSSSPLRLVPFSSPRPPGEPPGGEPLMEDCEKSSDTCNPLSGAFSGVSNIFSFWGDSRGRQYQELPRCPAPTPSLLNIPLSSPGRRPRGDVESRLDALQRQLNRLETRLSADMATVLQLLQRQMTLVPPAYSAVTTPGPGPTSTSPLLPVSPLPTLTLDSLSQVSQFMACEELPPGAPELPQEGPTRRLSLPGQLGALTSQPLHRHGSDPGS

Row | Compound | IC50 [1] [nM] | clearance [2] [mL/min/kg] | IC50 [3] [nM] | IC80 [4] [nM] | inhibition at 10 µM [5] [%] | further results
1 | O=C(O)c1ccccc1CC[C@@H]1CCC[C@@H]1NC(=O)C1CCN(c2ccc(OC(F)(F)F)cc2)CC1 | 1 | 17 | 10 | 43 | 32 | –
2 | O=C(O)c1ccccc1CC[C@@H]1CCC[C@@H]1NC(=O)C1CCN(c2ccc(C(F)(F)F)cn2)CC1 | 2 | 6 | 34 | 267 | 22 | –
3 | O=C(O)c1ccc(Cl)cc1NC[C@@H]1CCC[C@@H]1NC(=O)C1CCN(c2ccccc2)CC1 | 2 | 81 | 81 | 1370 | 46 | IC50 [6]: 21 nM; inhibition (INH) [7]: Not Active; inhibition (INH) [8]: Not Active; inhibition (INH) [9]: Not Active
4 | O=C(O)c1ccccc1CC[C@@H]1CCC[C@@H]1NC(=O)C1CCN(c2ccc(C(F)(F)F)cc2)CC1 | 2 | 5 | 5 | 40 | 5 | –
5 | O=C(O)c1ccc(Cl)cc1NC[C@@H]1CCC[C@@H]1NC(=O)C1CCN(c2ccc(C(F)(F)F)cc2)CC1 | 4 | 40 | 3 | 8 | 71 | IC50 [6]: 3.5 nM; inhibition (INH) [7]: Not Active; inhibition (INH) [8]: Not Active; inhibition (INH) [9]: Not Active
6 | O=C(O)c1ccc(Cl)cc1CC[C@@H]1CCC[C@@H]1NC(=O)C1CCN(c2ccc(C(F)(F)F)cc2)CC1 | 1 | 16 | 1 | 5 | 51 | –
7 | O=C(O)c1ccc(Cl)cc1OC[C@@H]1CCC[C@@H]1NC(=O)C1CCN(c2ccc(C(F)(F)F)cc2)CC1 | 2 | 57 | 8 | 25 | 39 | –
8 | O=C(O)c1ccc(F)cc1CC[C@@H]1CCC[C@@H]1NC(=O)C1CCN(c2ccc(C(F)(F)F)cc2)CC1 | 1 | 12 | 6 | 41 | 40 | –
9 | Cc1cccc2ccc(N3CCC(C(=O)N[C@H]4CCC[C@H]4CCc4ccccc4C(=O)O)CC3)nc12 | 1 | 31 | 6 | 24 | 14 | Time [10]: >12 h; Selectivity Index [11]: > 10000; bioavailability [12]: 52%; inhibition (INH) [13]: Not Active; inhibition (INH) [14]: Not Active; inhibition (INH) [15]: Not Active; bioavailability [16]: 68%; Cmax [17]: 4000 nM; inhibition (INH) [18]: Not Active; Cmax [19]: 530 nM; clearance [20]: 6.5 mL/min/kg; Time [21]: 24 h; Vd [22]: 4.8 L/kg; Vd [23]: 1.2 L/kg; inhibition (INH) [24]: Not Active; inhibition (INH) [25]: Not Active; Selectivity Index [26]: > 10000
10 | O=C(O)c1cccnc1CC[C@@H]1CCC[C@@H]1NC(=O)C1CCN(c2ccc(C(F)(F)F)cc2)CC1 | 6 | 38 | 21 | 146 | – | –
11 | CC(C)(C)C(=O)N[C@H]1CCC[C@H]1CNc1cc(Cl)ccc1C(=O)O | 43 | – | 8910 | – | – | –
12 | Cc1ccc(C(=O)O)c(CC[C@@H]2CCC[C@@H]2NC(=O)C2CCN(c3ccc(C(F)(F)F)cc3)CC2)c1 | 1 | 9 | 3 | 10 | 56 | –
